Data as given in patent US4438207A, “Radioimmunoassay for cannabinoids” (priority 1981, dated 1984).

What was measured:
[1] = system: Tetrahydrocannabinol Antibody; assay: ^125 I THC radioimmunoassay response curve, dextran-coated charcoal separation; format: binding, rabbit
[2] = system: Tetrahydrocannabinol Antibody; assay: ^125 I THC radioimmunoassay response curve, anion exchange resin separation; format: binding, rabbit; conditions: resin reagent
[3] = experiments with humans; cited from earlier work
[4] = Urine THC levels as a function of time after smoking known dosages; conditions: THC 2.5 mg smoked
antiserum = assay: Binding of iodinated antigen to THC antiserum; set-up: species or system rabbit
Method: A total of 50 μl of a solution of […] of (6aR-trans)-N-[2-(4-hydroxyphenyl)ethyl]-4-(6a,7,8,10a-Tetrahydro-6,6,9-trimethyl-3-pentyl-6H-dibenzo[b,d]pyran-1-oxy)butanamide in 1 ml of 100% alcohol was added to a vial containing 5 mCi of Na^125 I having a radioactive concentration of >100 mCi/ml. To this mixture was then added a total of 40 μl of chloramine T solution (5 mg/ml in 75% EtOH; 25% Borate buffer 0.1 M, pH 8.4). The reaction mixture was mixed for 180 seconds. After mixing, a total of 40 μl of a 1% solution of sodium meta bisulfite (75% EtOH, 25% Tris buffer 0.1 M, pH 7.0) was added to the reaction vial, and the vial contents were mixed for 30 seconds to stop the reaction.
The mixture was removed from the vial and placed on the surface of a Bio-Gel P-2 column (1.5×40 cm, 100-200 mesh) until completely absorbed on the column bed. Approximately 200 ml of 60% Tris -40% EtOH were added, and 100×1-2 ml fractions were collected. The eluate contained the above-captioned, labeled antigen.
After selection of the appropriate fractions (≥50% binding), the fractions were pooled and diluted 1:50 in 0.01 M phosphate buffered saline (PBS) containing 25% ethanol with 0.1% sodium azide and 0.002-0.007% butylated hydroxy toluene (BHT) as preservatives.
[…]. Multiple iodinations were performed on Δ^9 -tetrahydrocannabinol,and the radioisotopically-labeled reagent was used as the ^125 I-labeled antigen. The elution patterns varied considerably. In general, there were numerous small peaks in the elution patterns of most of the iodination products with the percent binding being lower than 50%. On occasion, there were two major peaks with insufficient binding (<50%) in either peak.
. Subsequent injections were made at four-week intervals with immunogen in Freund's incomplete adjuvant. Bleedings, obtained by venipuncture from immunized rabbits, were allowed to stand at 2°-8° C. temperature until the clot had formed. The serum was decanted and stored at from -20° to 5° C.

Molecule: CCCCCc1cc(O)c2c(c1)OC(C)(C)[C@@H]1CCC(C)=C[C@@H]21 [THC, Δ-9-tetrahydrocannabinol]
- DPM ([1]; 12.5 ng/ml THC): 13946 DPM
- DPM ([1]; 25.0 ng/ml THC): 11964 DPM
- DPM ([1]; 50.0 ng/ml THC): 11389 DPM
- DPM ([1]; 100.0 ng/ml THC): 11342 DPM
- DPM ([1]; 200.0 ng/ml THC): 10474 DPM
- DPM ([2]; 12.5 ng/ml THC): 31096 DPM
- DPM ([2]; 25 ng/ml THC): 29212 DPM
- DPM ([2]; 50 ng/ml THC): 27945 DPM
- DPM ([2]; 100 ng/ml THC): 26333 DPM
- DPM ([2]; 200 ng/ml THC): 25651 DPM
- excretion route of metabolites [3]: mainly via feces
- extent of metabolism [3]: almost complete metabolism
- Tetrahydrocannabinol Concentration in urine ([4]; subject 1 (smoked marijuana prior to study), sodium azide added, 0 h): 10.0 ng THC E/ml
- Tetrahydrocannabinol Concentration in urine ([4]; subject 1 (smoked marijuana prior to study), sodium azide added, 0-4 h): 29.0 ng THC E/ml
- Tetrahydrocannabinol Concentration in urine ([4]; subject 1 (smoked marijuana prior to study), sodium azide added, 4-8 h): 70.0 ng THC E/ml
- Tetrahydrocannabinol Concentration in urine ([4]; subject 1 (smoked marijuana prior to study), sodium azide added, 12-24 h): 72.5 ng THC E/ml
- Tetrahydrocannabinol Concentration in urine ([4]; subject 1 (smoked marijuana prior to study), sodium azide added, 24-48 h): 41.5 ng THC E/ml
- Tetrahydrocannabinol Concentration in urine ([4]; subject 1 (smoked marijuana prior to study), sodium azide added, 48-72 h): 40.0 ng THC E/ml
- Tetrahydrocannabinol Concentration in urine ([4]; subject 1 (smoked marijuana prior to study), 0 h): 28.0 ng THC E/ml
- Tetrahydrocannabinol Concentration in urine ([4]; subject 1 (smoked marijuana prior to study), 0-4 h): 45.0 ng THC E/ml
- Tetrahydrocannabinol Concentration in urine ([4]; subject 1 (smoked marijuana prior to study), 4-8 h): 37.5 ng THC E/ml
- Tetrahydrocannabinol Concentration in urine ([4]; subject 1 (smoked marijuana prior to study), 12-24 h): 45.0 ng THC E/ml
- Tetrahydrocannabinol Concentration in urine ([4]; subject 1 (smoked marijuana prior to study), 24-48 h): 20.0 ng THC E/ml
- Tetrahydrocannabinol Concentration in urine ([4]; subject 1 (smoked marijuana prior to study), 48-72 h): 27.5 ng THC E/ml
- Tetrahydrocannabinol Concentration in urine ([4]; subject 2, sodium azide added, 0 h): 5.0 ng THC E/ml
- Tetrahydrocannabinol Concentration in urine ([4]; subject 2, sodium azide added, 0-4 h): 11.0 ng THC E/ml
- Tetrahydrocannabinol Concentration in urine ([4]; subject 2, sodium azide added, 4-8 h): 13.5 ng THC E/ml
- Tetrahydrocannabinol Concentration in urine ([4]; subject 2, sodium azide added, 8-12 h): 7.5 ng THC E/ml
- Tetrahydrocannabinol Concentration in urine ([4]; subject 2, sodium azide added, 12-24 h): 17.5 ng THC E/ml
- Tetrahydrocannabinol Concentration in urine ([4]; subject 2, sodium azide added, 24-48 h): 7.5 ng THC E/ml
- Tetrahydrocannabinol Concentration in urine ([4]; subject 2, sodium azide added, 48-72 h): 5.0 ng THC E/ml
- Tetrahydrocannabinol Concentration in urine ([4]; subject 2, 0 h): 5.0 ng THC E/ml
- Tetrahydrocannabinol Concentration in urine ([4]; subject 2, 0-4 h): 4.0 ng THC E/ml
- Tetrahydrocannabinol Concentration in urine ([4]; subject 2, 4-8 h): 26.0 ng THC E/ml
- Tetrahydrocannabinol Concentration in urine ([4]; subject 2, 8-12 h): 10.0 ng THC E/ml
- Tetrahydrocannabinol Concentration in urine ([4]; subject 2, 12-24 h): 7.5 ng THC E/ml
- Tetrahydrocannabinol Concentration in urine ([4]; subject 2, 24-48 h): 22.5 ng THC E/ml
- Tetrahydrocannabinol Concentration in urine ([4]; subject 2, 48-72 h): 12.5 ng THC E/ml

Molecule: (6aR-trans)-N-[2-hydroxyphenyl)ethyl]-4-(6a,7,10,10a-Tetrahydro-6,6,9-trimethyl-3-pentyl-6H-dibenzo[b,d]pyran-1-oxy)butanamide [Δ^9 -Tetrahydrocannabinol Derivative]
- binding properties retained (antiserum; antigen reagent, at least six weeks): > 50%
- binding of iodinated product, major peak (antiserum; upon iodination, major peak, fractions #10 to #15): > 50%
- binding of iodinated product, minor peak (antiserum; upon iodination, minor peak, fractions #30 to #35): no binding
